Measured values taken from ChEMBL document CHEMBL4196024, “Discovery of 2,4,6-trisubstitued pyrido[3,4-d]pyrimidine derivatives as new EGFR-TKIs” (Eur J Med Chem, 2018).
Active and inactive are the calls of the source. The rule behind the calls is not given here.

How the values were obtained:
[1] = tested on: HCC827; assay: Antiproliferative activity against human HCC827 cells harboring EGFR E746-A750 deletion mutant after 72 hrs by MTT assay; assay type: functional, cell-based; settings: HCC827, 72 h
[2] = tested on: NCI-H1975; assay: Antiproliferative activity against human NCI-H1975 cells harboring EGFR L858R/T790M double mutant after 72 hrs by MTT assay; assay type: functional, cell-based; settings: NCI-H1975, 72 h
[3] = tested on: A549; assay: Antiproliferative activity against human A549 cells harboring wild type EGFR after 72 hrs by MTT assay; assay type: cell-based; settings: A549, 72 h
[4] = biological target: Epidermal growth factor receptor (Homo sapiens, UniProt P00533); assay: Inhibition of wild type EGFR (unknown origin) using Poly (Glu, Tyr) as substrate after 40 mins by kinase-Glo luminescence assay
Sequence of Epidermal growth factor receptor (Homo sapiens, UniProt P00533) (P00533 whole entry): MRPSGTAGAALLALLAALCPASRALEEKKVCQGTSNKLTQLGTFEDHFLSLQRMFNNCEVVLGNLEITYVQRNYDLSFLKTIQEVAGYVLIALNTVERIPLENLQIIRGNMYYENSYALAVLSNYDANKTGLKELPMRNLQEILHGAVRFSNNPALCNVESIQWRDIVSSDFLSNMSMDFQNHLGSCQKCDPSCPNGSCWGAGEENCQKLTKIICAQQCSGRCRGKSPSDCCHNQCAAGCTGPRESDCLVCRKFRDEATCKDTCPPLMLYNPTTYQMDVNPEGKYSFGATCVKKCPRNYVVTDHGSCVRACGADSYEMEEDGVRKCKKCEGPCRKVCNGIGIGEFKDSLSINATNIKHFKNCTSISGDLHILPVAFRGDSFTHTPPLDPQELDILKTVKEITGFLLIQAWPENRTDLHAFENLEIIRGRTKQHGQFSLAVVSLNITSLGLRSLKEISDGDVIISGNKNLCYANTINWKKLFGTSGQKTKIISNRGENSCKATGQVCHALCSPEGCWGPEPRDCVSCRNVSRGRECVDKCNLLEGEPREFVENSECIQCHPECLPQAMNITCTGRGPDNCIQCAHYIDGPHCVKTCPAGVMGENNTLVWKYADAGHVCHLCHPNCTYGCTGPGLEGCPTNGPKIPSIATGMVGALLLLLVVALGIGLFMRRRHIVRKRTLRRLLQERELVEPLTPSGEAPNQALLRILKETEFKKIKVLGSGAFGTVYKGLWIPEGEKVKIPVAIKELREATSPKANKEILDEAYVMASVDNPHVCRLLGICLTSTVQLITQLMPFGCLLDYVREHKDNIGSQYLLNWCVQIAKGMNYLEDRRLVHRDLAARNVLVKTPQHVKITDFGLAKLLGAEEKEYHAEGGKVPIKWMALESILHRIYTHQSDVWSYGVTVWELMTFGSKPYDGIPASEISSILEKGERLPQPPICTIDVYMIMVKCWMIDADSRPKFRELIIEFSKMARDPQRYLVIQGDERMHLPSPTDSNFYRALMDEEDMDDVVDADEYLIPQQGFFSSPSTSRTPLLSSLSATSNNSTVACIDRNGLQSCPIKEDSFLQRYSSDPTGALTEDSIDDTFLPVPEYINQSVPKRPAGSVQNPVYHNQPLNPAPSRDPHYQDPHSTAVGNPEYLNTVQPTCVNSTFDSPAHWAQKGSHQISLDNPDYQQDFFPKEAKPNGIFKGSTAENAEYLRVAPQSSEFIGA

[5] = biological target: Epidermal growth factor receptor (Homo sapiens, UniProt P00533, L858R); assay: Inhibition of wild type EGFR L858R mutant (unknown origin) using Poly (Glu, Tyr) as substrate after 40 mins by kinase-Glo luminescence assay
[6] = biological target: Epidermal growth factor receptor (Homo sapiens, UniProt P00533, L858R/T790M); assay: Inhibition of wild type EGFR L858R/T790M double mutant (unknown origin) using Poly (Glu, Tyr) as substrate after 40 mins by kinase-Glo luminescence assay
Sequence of Epidermal growth factor receptor (Homo sapiens, UniProt P00533, L858R/T790M) (P00533 25-1210 T790M/L858R limits assumed): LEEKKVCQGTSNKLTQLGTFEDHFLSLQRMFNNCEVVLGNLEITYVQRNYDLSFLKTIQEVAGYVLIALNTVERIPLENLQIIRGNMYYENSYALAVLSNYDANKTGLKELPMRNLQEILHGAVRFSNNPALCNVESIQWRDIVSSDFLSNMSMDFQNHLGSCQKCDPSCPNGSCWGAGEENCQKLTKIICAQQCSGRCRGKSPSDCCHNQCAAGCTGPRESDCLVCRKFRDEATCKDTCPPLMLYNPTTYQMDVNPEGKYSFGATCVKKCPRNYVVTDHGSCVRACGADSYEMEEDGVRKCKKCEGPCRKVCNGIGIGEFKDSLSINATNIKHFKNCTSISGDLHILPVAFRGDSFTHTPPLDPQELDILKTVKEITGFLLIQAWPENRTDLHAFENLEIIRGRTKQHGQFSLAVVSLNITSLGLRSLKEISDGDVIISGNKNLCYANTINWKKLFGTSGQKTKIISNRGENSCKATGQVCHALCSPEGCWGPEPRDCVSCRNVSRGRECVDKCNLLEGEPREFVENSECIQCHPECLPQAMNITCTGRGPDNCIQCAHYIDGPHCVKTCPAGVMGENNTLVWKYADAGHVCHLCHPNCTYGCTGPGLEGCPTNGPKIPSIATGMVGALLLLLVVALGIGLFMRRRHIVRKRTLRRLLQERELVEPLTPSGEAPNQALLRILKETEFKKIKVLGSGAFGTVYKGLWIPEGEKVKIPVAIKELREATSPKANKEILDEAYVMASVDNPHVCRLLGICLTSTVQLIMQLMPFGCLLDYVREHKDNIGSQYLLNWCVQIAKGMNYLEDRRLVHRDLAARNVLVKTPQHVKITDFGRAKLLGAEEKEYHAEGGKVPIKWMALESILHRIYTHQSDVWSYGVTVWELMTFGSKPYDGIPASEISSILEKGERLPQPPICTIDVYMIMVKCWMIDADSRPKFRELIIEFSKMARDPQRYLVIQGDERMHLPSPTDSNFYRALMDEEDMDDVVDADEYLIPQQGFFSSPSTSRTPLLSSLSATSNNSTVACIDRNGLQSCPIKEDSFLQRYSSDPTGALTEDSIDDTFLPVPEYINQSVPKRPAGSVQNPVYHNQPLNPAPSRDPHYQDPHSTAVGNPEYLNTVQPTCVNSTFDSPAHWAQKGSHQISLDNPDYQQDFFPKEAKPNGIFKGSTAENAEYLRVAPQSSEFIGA

[7] = biological target: Epidermal growth factor receptor (Homo sapiens, UniProt P00533, C797S/L858R/T790M); assay: Inhibition of wild type EGFR L858R/T790M/C797S mutant (unknown origin) using Poly (Glu, Tyr) as substrate after 40 mins by kinase-Glo luminescence assay
Sequence of Epidermal growth factor receptor (Homo sapiens, UniProt P00533, C797S/L858R/T790M) (P00533 25-1210 T790M/C797S/L858R limits assumed): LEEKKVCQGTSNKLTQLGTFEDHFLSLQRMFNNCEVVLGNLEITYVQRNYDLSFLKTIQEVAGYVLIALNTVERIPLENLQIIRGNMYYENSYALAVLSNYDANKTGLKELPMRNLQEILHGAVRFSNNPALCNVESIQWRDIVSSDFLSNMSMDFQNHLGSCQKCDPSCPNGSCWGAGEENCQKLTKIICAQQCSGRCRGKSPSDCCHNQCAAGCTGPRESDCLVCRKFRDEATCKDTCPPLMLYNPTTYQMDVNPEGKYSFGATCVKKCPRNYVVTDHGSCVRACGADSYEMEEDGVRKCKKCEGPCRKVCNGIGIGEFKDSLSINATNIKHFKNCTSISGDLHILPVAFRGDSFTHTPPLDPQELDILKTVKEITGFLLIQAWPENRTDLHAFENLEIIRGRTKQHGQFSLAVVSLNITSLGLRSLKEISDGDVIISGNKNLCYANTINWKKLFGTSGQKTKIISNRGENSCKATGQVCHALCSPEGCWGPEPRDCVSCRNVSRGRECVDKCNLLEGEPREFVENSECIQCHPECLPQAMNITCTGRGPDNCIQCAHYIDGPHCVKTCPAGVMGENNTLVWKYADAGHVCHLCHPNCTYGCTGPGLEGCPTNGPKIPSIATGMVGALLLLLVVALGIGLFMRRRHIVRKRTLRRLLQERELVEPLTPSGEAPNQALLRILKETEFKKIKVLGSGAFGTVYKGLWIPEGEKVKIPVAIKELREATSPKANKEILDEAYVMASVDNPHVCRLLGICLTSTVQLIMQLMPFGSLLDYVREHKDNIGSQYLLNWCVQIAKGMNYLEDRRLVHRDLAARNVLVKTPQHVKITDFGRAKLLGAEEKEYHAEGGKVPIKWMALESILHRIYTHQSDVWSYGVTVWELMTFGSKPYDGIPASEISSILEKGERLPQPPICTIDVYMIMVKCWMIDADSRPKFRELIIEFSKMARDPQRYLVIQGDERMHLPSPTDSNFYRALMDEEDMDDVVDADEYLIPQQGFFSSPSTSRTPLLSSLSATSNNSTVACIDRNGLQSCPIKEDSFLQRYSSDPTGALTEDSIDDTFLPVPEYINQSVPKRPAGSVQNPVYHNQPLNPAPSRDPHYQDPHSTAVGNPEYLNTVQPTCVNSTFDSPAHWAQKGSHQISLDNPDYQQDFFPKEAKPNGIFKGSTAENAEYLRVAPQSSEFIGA

[8] = tested on: Epidermal growth factor receptor (Homo sapiens), P00533 [UNDEFINED MUTATION]; assay: Inhibition of EGFR E746-A750 deletion mutant in human HCC827 cells assessed as reduction in EGFR phosphorylation after 8 hrs by Western blot analysis; assay type: cell-based
Sequence of Epidermal growth factor receptor (Homo sapiens), P00533 [UNDEFINED MUTATION] (P00533 whole entry, looked up, stated change not applied): as the sequence (P00533 whole entry) above

[9] = tested on: Epidermal growth factor receptor (Homo sapiens), P00533 [UNDEFINED MUTATION]; assay: Inhibition of EGFR E746-A750 deletion mutant in human HCC827 cells assessed as reduction in EGFR phosphorylation at 3.33 uM after 8 hrs by Western blot analysis; assay type: cell-based
[10] = tested on: Epidermal growth factor receptor (Homo sapiens), P00533 [UNDEFINED MUTATION]; assay: Inhibition of EGFR E746-A750 deletion mutant in human HCC827 cells assessed as reduction in ERK phosphorylation at 3.33 uM after 8 hrs by Western blot analysis; assay type: cell-based
[11] = tested on: HCC827; assay: Induction of apoptosis in human HCC827 cells harboring EGFR E746-A750 deletion mutant assessed as early apoptotic cells at 3 uM after 24 hrs by Annexin V-FITC/propidium iodide staining based flow cytometry (reference value: 1.34%); assay type: functional
[12] = tested on: HCC827; assay: Induction of apoptosis in human HCC827 cells harboring EGFR E746-A750 deletion mutant assessed as late apoptotic cells at 3 uM after 24 hrs by Annexin V-FITC/propidium iodide staining based flow cytometry (reference value: 27.14%); assay type: functional

## CN1CCN(c2ccc(Nc3cc4c(N5CCOCC5)nc(Nc5cccc(C(F)(F)F)c5)nc4cn3)nc2)CC1
[1]
  IC50: > 10000 nM

## CN(C)C1CCN(c2ccc(Nc3cc4c(N5CCCC5)nc(Nc5ccccc5)nc4cn3)nc2)CC1
[1]
  IC50: 650 nM
[2]
  IC50: 790 nM
[3]
  IC50: 740 nM
[4]
  IC50: 5.5 nM
[5]
  IC50: 1.6 nM
[6]
  IC50: 65.6 nM
[7]
  IC50: 62.2 nM

## CN(C)C1CCN(c2ccc(Nc3cc4c(N5CCOCC5)nc(Nc5cccc(C(F)(F)F)c5)nc4cn3)nc2)CC1
[1]
  IC50: 890 nM
[2]
  IC50: 680 nM
[3]
  IC50: 740 nM

## CN(C)C1CCN(c2ccc(Nc3cc4c(N5CCC(CO)CC5)nc(Nc5ccc(F)cc5)nc4cn3)nc2)CC1
[1]
  IC50: 44 nM
[2]
  IC50: 400 nM
[3]
  IC50: 1060 nM
[4]
  IC50: 10.4 nM
[5]
  IC50: 1.1 nM
[6]
  IC50: 34 nM
[7]
  IC50: 7.2 nM
[8]
  inhibition: Dose-dependent effect
[9]
  inhibition: inactive
[10]
  inhibition: inactive
[11]
  Activity: 6.21%
[12]
  Activity: 74.26%

## CN1CCN(c2ccc(Nc3cc4c(N5CCCC5)nc(Nc5cnn(C)c5)nc4cn3)nc2)CC1
[1]
  IC50: 3660 nM
[2]
  IC50: 2170 nM

## CN(C)C1CCN(c2ccc(Nc3cc4c(N5CCOCC5)nc(NCc5ccccn5)nc4cn3)nc2)CC1
[1]
  IC50: 7900 nM
[2]
  IC50: > 10000 nM

## C=CC(=O)Nc1cc(Nc2nccc(-c3cn(C)c4ccccc34)n2)c(OC)cc1N(C)CCN(C)C [OSIMERTINIB]
[1]
  IC50: 27 nM
[11]
  Activity: 8.28%
[12]
  Activity: 68.1%

## CN(C)C1CCN(c2ccc(Nc3cc4c(N5CCOCC5)nc(Nc5ccccn5)nc4cn3)nc2)CC1
[1]
  IC50: 1660 nM
[2]
  IC50: 2650 nM

## CN(C)C1CCN(c2ccc(Nc3cc4c(N5CCOCC5)nc(Nc5ccc(F)cc5F)nc4cn3)nc2)CC1
[1]
  IC50: 350 nM
[2]
  IC50: 980 nM
[3]
  IC50: 1140 nM
[4]
  IC50: 0.9 nM
[5]
  IC50: 2.1 nM
[6]
  IC50: 30 nM
[7]
  IC50: 53.6 nM

## CN1CCN(c2ccc(Nc3cc4c(N5CCOCC5)nc(Nc5cccnc5)nc4cn3)nc2)CC1
[1]
  IC50: 5430 nM

## CN1CCN(c2ccc(Nc3cc4c(N5CCOCC5)nc(Nc5ccccc5)nc4cn3)nc2)CC1
[1]
  IC50: 200 nM
[2]
  IC50: 1280 nM
[3]
  IC50: 1020 nM

## CN(CCO)c1nc(Nc2ccccc2)nc2cnc(Nc3ccc(N4CCC(N(C)C)CC4)cn3)cc12
[1]
  IC50: 240 nM
[2]
  IC50: 590 nM
[3]
  IC50: 690 nM
[7]
  IC50: 51.3 nM

## CN(C)C1CCN(c2ccc(Nc3cc4c(N5CCOCC5)nc(OC5CCOCC5)nc4cn3)nc2)CC1
[1]
  IC50: 6910 nM
[2]
  IC50: > 10000 nM

## CN(C)C1CCN(c2ccc(Nc3cc4c(N5CCOCC5)nc(Oc5cccnc5)nc4cn3)nc2)CC1
[1]
  IC50: 2510 nM
[2]
  IC50: > 10000 nM

## CN(C)C1CCN(c2ccc(Nc3cc4c(N5CCOCC5)nc(NCc5ccccc5)nc4cn3)nc2)CC1
[1]
  IC50: 1640 nM
[2]
  IC50: 7160 nM

## CN1CCN(c2ccc(Nc3cc4c(N5CCCC5)nc(Nc5ccccc5)nc4cn3)cc2)CC1
[1]
  IC50: > 10000 nM

## CN1CCN(c2ccc(Nc3cc4c(N5CCCC5)nc(Nc5ccc(F)c(Cl)c5)nc4cn3)nc2)CC1
[1]
  IC50: 1390 nM
[2]
  IC50: 520 nM

## CN1CCN(c2ccc(Nc3cc4c(N5CCCC5)nc(Nc5cccc(F)c5)nc4cn3)nc2)CC1
[1]
  IC50: 1010 nM
[2]
  IC50: > 10000 nM
[3]
  IC50: > 10000 nM

## CN(C)C1CCN(c2ccc(Nc3cc4c(N5CCOCC5)nc(NCc5cccnc5)nc4cn3)nc2)CC1
[1]
  IC50: > 10000 nM

## CN(C)C1CCN(c2ccc(Nc3cc4c(N5CCOCC5)nc(Nc5cccnc5)nc4cn3)nc2)CC1
[1]
  IC50: 1820 nM
[2]
  IC50: 12400 nM

## CN(C)C1CCN(c2ccc(Nc3cc4c(N5CCC(CO)CC5)nc(Nc5ccccc5)nc4cn3)nc2)CC1
[1]
  IC50: 64 nM
[2]
  IC50: 420 nM
[3]
  IC50: 690 nM
[4]
  IC50: 2.1 nM
[5]
  IC50: 3.2 nM
[6]
  IC50: 44.1 nM
[7]
  IC50: 82.9 nM

## CN(C)C1CCN(c2ccc(Nc3cc4c(N5CCOCC5)nc(Nc5ccccc5)nc4cn3)nc2)CC1
[1]
  IC50: 110 nM
[2]
  IC50: 680 nM
[3]
  IC50: 550 nM
[4]
  IC50: 4.6 nM
[5]
  IC50: 3.9 nM
[6]
  IC50: 57.7 nM
[7]
  IC50: 54.1 nM
[11]
  Activity: 9.32%
[12]
  Activity: 64.85%

## CN(C)C1CCN(c2ccc(Nc3cc4c(N5CCOCC5)nc(Nc5ccc(F)c(Cl)c5)nc4cn3)nc2)CC1
[1]
  IC50: 390 nM
[2]
  IC50: 1160 nM
[3]
  IC50: 970 nM

## Cn1cc(Nc2cc3c(N4CCOCC4)nc(Nc4ccccc4)nc3cn2)cn1
[1]
  IC50: > 10000 nM

## CN(C)C1CCN(c2ccc(Nc3cc4c(N5CCOCC5)nc(Nc5ccc(F)cc5)nc4cn3)nc2)CC1
[1]
  IC50: 310 nM
[2]
  IC50: 1670 nM
[3]
  IC50: 530 nM
[4]
  IC50: 1.5 nM
[5]
  IC50: 2.5 nM
[6]
  IC50: 28.8 nM
[7]
  IC50: 28 nM

## CN1CCN(c2ccc(Nc3cc4c(N(C)C)nc(Nc5ccccc5)nc4cn3)nc2)CC1
[1]
  IC50: 1160 nM
[2]
  IC50: 7350 nM
[3]
  IC50: > 10000 nM

## CN(C)C1CCN(c2ccc(Nc3cc4c(N5CCOCC5)nc(OCC5CCOCC5)nc4cn3)nc2)CC1
[1]
  IC50: > 10000 nM
[2]
  IC50: > 10000 nM

## CN1CCN(c2ccc(Nc3cc4c(N(C)C)nc(Nc5ccccc5)nc4cn3)cc2)CC1
[1]
  IC50: > 10000 nM

## CN1CCN(c2nc(Nc3ccc(F)cc3)nc3cnc(Nc4ccc(N5CCC(N(C)C)CC5)cn4)cc23)CC1
[1]
  IC50: 130 nM
[2]
  IC50: 550 nM
[3]
  IC50: 600 nM
[7]
  IC50: 34.8 nM

## CN1CCN(c2ccc(Nc3cc4c(N5CCCC5)nc(Nc5ccccc5)nc4cn3)nc2)CC1
[1]
  IC50: 1350 nM
[2]
  IC50: 2470 nM
[3]
  IC50: 8700 nM
[4]
  IC50: 4.4 nM
[5]
  IC50: 2.3 nM
[6]
  IC50: 85 nM

## CN(C)CCN(C)c1ccc(Nc2cc3c(N4CCCC4)nc(Nc4ccccc4)nc3cn2)nc1
[1]
  IC50: 1890 nM
[2]
  IC50: 820 nM
[3]
  IC50: 1300 nM

## CN(C)CCN(C)c1nc(Nc2ccc(F)cc2)nc2cnc(Nc3ccc(N4CCC(N(C)C)CC4)cn3)cc12
[1]
  IC50: 450 nM
[2]
  IC50: 900 nM
[3]
  IC50: 830 nM
[7]
  IC50: 24.7 nM

## CN(C)C1CCN(c2ccc(Nc3cc4c(N5CCCCC5)nc(Nc5ccccc5)nc4cn3)nc2)CC1
[1]
  IC50: 240 nM
[2]
  IC50: 1020 nM
[3]
  IC50: 540 nM
[4]
  IC50: 0.9 nM
[5]
  IC50: 4.9 nM
[6]
  IC50: 23.2 nM
[7]
  IC50: 15 nM

## CN1CCN(c2ccc(Nc3cc4c(N5CCCCC5)nc(Nc5ccccc5)nc4cn3)nc2)CC1
[1]
  IC50: 270 nM
[2]
  IC50: 2050 nM
[3]
  IC50: 1330 nM
[4]
  IC50: 1.1 nM
[5]
  IC50: 1.1 nM
[6]
  IC50: 45 nM
[7]
  IC50: 23 nM

## CN(CCCO)c1nc(Nc2ccc(F)cc2)nc2cnc(Nc3ccc(N4CCC(N(C)C)CC4)cn3)cc12
[1]
  IC50: 80 nM
[2]
  IC50: 300 nM
[3]
  IC50: 420 nM
[7]
  IC50: 51.9 nM
